Here are results for nine molecules from PubChem BioAssay AID248 (DTP/NCI, 2004).

Several values for one entry are separate records, joined by “and”; a condition that tells them apart may be missing. Identical values can stand only once. Inconclusive results and toxic doses are left out.

This experiment deals with L1210 leukemia ip in BDF1 mice, survival T/C. Nature of the experiment: NCI In Vivo Anticancer Drug Screen. Data for tumor model L1210 Leukemia (intraperitoneal) in B6D2F1 (BDF1) mice. The settings on record: endpoint: mean survival time, higher = longer survival. A digest of the protocol: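 Ratio derived from survival: compound-dosed mice over vehicle-dosed mice, all bearing a transplantable tumor.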

Setting [1] is: dose: 100.0 mg/kg/injection, schedule: Q01DX009 (ip), vehicle: Klucel (hydroxypropylcellulose) (HPC).
The mark [2] stands for this setting: dose: 50.0 mg/kg/injection, schedule: Q01DX001 (ip), vehicle: carboxymethylcellulose (CMC).
Setting [3] is: dose: 100.0 mg/kg/injection, schedule: Q01DX001 (ip), vehicle: carboxymethylcellulose (CMC).
The mark [4] stands for this setting: dose: 100.0 mg/kg/injection, schedule: Q01DX001 (ip), vehicle: saline.

With `OCC1OC(n2cnc3c(Cl)ncnc32)C(O)C1O` (configuration not stated), the T/C reads like this: (dose: 62.5 mg/kg/injection, schedule: Q01DX009 (ip), vehicle: saline) 96 % of control; (dose: 62.5 mg/kg/injection, schedule: Q01DX010 (ip), vehicle: saline) 102 % of control; (dose: 62.5 mg/kg/injection, schedule: Q01DX Z (ip), vehicle: carboxymethylcellulose (CMC)) 102 % of control; under setting [1], 102 % of control; (dose: 125.0 mg/kg/injection, schedule: Q01DX009 (ip), vehicle: saline) 93 % of control and 89 % of control; (dose: 125.0 mg/kg/injection, schedule: Q01DX010 (ip), vehicle: saline) 89 % of control and 92 % of control. Moreover, the T/C is 96 % of control (dose: 125.0 mg/kg/injection, schedule: Q01DX Z (ip), vehicle: carboxymethylcellulose (CMC)); 96 % of control and 91 % of control (dose: 250.0 mg/kg/injection, schedule: Q01DX009 (ip), vehicle: saline); 100 % of control and 92 % of control (dose: 250.0 mg/kg/injection, schedule: Q01DX010 (ip), vehicle: saline); 110 % of control (dose: 250.0 mg/kg/injection, schedule: Q01DX Z (ip), vehicle: carboxymethylcellulose (CMC)); 101 % of control (dose: 300.0 mg/kg/injection, schedule: Q01DX009 (ip), vehicle: Klucel (hydroxypropylcellulose) (HPC)); 96 % of control (dose: 440.0 mg/kg/injection, schedule: Q01DX001 (ip), vehicle: carboxymethylcellulose (CMC)). Besides, the T/C is 100 % of control (dose: 500.0 mg/kg/injection, schedule: Q01DX009 (ip), vehicle: Klucel (hydroxypropylcellulose) (HPC)); 96 % of control and 98 % of control (dose: 500.0 mg/kg/injection, schedule: Q01DX009 (ip), vehicle: saline); 97 % of control and 88 % of control (dose: 500.0 mg/kg/injection, schedule: Q01DX010 (ip), vehicle: saline); 94 % of control (dose: 500.0 mg/kg/injection, schedule: Q01DX Z (ip), vehicle: carboxymethylcellulose (CMC)); 95 % of control (dose: 670.0 mg/kg/injection, schedule: Q01DX001 (ip), vehicle: carboxymethylcellulose (CMC)); 95 % of control (dose: 1000.0 mg/kg/injection, schedule: Q01DX001 (ip), vehicle: carboxymethylcellulose (CMC)). The T/C by setting is: (dose: 1000.0 mg/kg/injection, schedule: Q01DX009 (ip), vehicle: Klucel (hydroxypropylcellulose) (HPC)) 106 % of control; (dose: 1500.0 mg/kg/injection, schedule: Q01DX001 (ip), vehicle: carboxymethylcellulose (CMC)) 90 % of control; (dose: 2250.0 mg/kg/injection, schedule: Q01DX001 (ip), vehicle: carboxymethylcellulose (CMC)) 97 % of control.

Turning to `Nc1ccc2scnc2c1`, the T/C runs as follows: (dose: 100.0 mg/kg/injection, schedule: Q01DX009 (ip), vehicle: saline with Tween-80) 98 % of control; (dose: 200.0 mg/kg/injection, schedule: Q01DX009 (ip), vehicle: saline with Tween-80) 98 % of control; (dose: 400.0 mg/kg/injection, schedule: Q01DX009 (ip), vehicle: saline with Tween-80) 92 % of control.

Consider `CC(=O)C(CCS(C)(=O)=O)c1ccccc1` (configuration not stated), for which the T/C is 103 % of control (dose: 100.0 mg/kg/injection, schedule: Q04DX003 (ip), vehicle: Klucel (hydroxypropylcellulose) (HPC)); 97 % of control (dose: 200.0 mg/kg/injection, schedule: Q04DX003 (ip), vehicle: Klucel (hydroxypropylcellulose) (HPC)); 105 % of control (dose: 400.0 mg/kg/injection, schedule: Q04DX003 (ip), vehicle: Klucel (hydroxypropylcellulose) (HPC)).

As for `Cn1nc(Br)c(=O)n(C(c2ccccc2)c2ccccc2)c1=O`, the T/C was 110 % of control (dose: 22.0 mg/kg/injection, schedule: Q01DX015 (ip), vehicle: other); 103 % of control (dose: 33.0 mg/kg/injection, schedule: Q01DX015 (ip), vehicle: other); 100 % of control (dose: 44.0 mg/kg/injection, schedule: Q01DX001 (ip), vehicle: other); 103 % of control (dose: 50.0 mg/kg/injection, schedule: Q01DX015 (ip), vehicle: other); 102 % of control and 108 % of control (dose: 66.0 mg/kg/injection, schedule: Q01DX001 (ip), vehicle: other); 106 % of control (dose: 75.0 mg/kg/injection, schedule: Q01DX015 (ip), vehicle: other). Also, the T/C by setting is: (dose: 150.0 mg/kg/injection, schedule: Q01DX001 (ip), vehicle: other) 100 % of control and 104 % of control; (dose: 200.0 mg/kg/injection, schedule: Q01DX001 (ip), vehicle: other) 154 % of control; (dose: 400.0 mg/kg/injection, schedule: Q01DX001 (ip), vehicle: other) 154 % of control.

Regarding `CC1CN(C(=S)Nc2cccc3ccccc23)CC(C)O1` (configuration not stated), the T/C is 100 % of control under setting [1]; 97 % of control (dose: 200.0 mg/kg/injection, schedule: Q01DX009 (ip), vehicle: Klucel (hydroxypropylcellulose) (HPC)); 95 % of control (dose: 400.0 mg/kg/injection, schedule: Q01DX009 (ip), vehicle: Klucel (hydroxypropylcellulose) (HPC)).

As for `Cc1cc(C(C(N)=O)c2ccccc2)ccc1N(CCCl)CCCl` (configuration not stated), the T/C (dose: 2.0 mg/kg/injection, schedule: Q01DX009 (ip), vehicle: carboxymethylcellulose (CMC)) is 116 % of control; the T/C (dose: 3.7 mg/kg/injection, schedule: Q01DX015 (ip), vehicle: carboxymethylcellulose (CMC)) was 121 % of control; the T/C (dose: 4.0 mg/kg/injection, schedule: Q01DX009 (ip), vehicle: carboxymethylcellulose (CMC)) was 124 % of control; the T/C (dose: 7.2 mg/kg/injection, schedule: Q04DX003 (ip), vehicle: acetone) is 104 % of control; the T/C (dose: 20.0 mg/kg/injection, schedule: Q01DX009 (ip), vehicle: Klucel (hydroxypropylcellulose) (HPC)) was 153 % of control; the T/C (dose: 21.0 mg/kg/injection, schedule: Q04DX003 (ip), vehicle: acetone) was 109 % of control and 121 % of control. In addition, the T/C (dose: 21.0 mg/kg/injection, schedule: Q04DX003 (ip), vehicle: saline) is 112 % of control; the T/C (dose: 33.0 mg/kg/injection, schedule: Q04DX003 (ip), vehicle: saline) is 118 % of control; the T/C (dose: 37.5 mg/kg/injection, schedule: Q01DX009 (ip), vehicle: saline with Tween-80) was 86 % of control; the T/C (dose: 40.0 mg/kg/injection, schedule: Q01DX009 (ip), vehicle: Klucel (hydroxypropylcellulose) (HPC)) was 101 % of control; the T/C (dose: 45.0 mg/kg/injection, schedule: Q01DX015 (ip), vehicle: carboxymethylcellulose (CMC)) is 95 % of control; the T/C (dose: 49.0 mg/kg/injection, schedule: Q04DX003 (ip), vehicle: acetone) is 120 % of control. In addition, the T/C runs as follows: under setting [2], 114 % of control; (dose: 50.0 mg/kg/injection, schedule: Q04DX003 (ip), vehicle: acetone) 123 % of control; (dose: 50.0 mg/kg/injection, schedule: Q04DX003 (ip), vehicle: saline) 106 % of control; (dose: 64.0 mg/kg/injection, schedule: Q01DX009 (ip), vehicle: carboxymethylcellulose (CMC)) 106 % of control; (dose: 66.0 mg/kg/injection, schedule: Q01DX001 (ip), vehicle: saline) 116 % of control; (dose: 66.0 mg/kg/injection, schedule: Q04DX003 (ip), vehicle: acetone) 112 % of control. Besides, the T/C (dose: 88.8 mg/kg/injection, schedule: Q01DX001 (ip), vehicle: carboxymethylcellulose (CMC)) is 123 % of control; the T/C under setting [3] was 112 % of control; the T/C under setting [4] is 100 % of control; the T/C (dose: 150.0 mg/kg/injection, schedule: Q04DX003 (ip), vehicle: acetone) was 96 % of control; the T/C (dose: 300.0 mg/kg/injection, schedule: Q01DX001 (ip), vehicle: carboxymethylcellulose (CMC)) is 152 % of control.

For the molecule `CC1CC(C)(C)S(=O)(=O)O1` (configuration not stated), the T/C was 107 % of control under setting [2]; 98 % of control under setting [3]; 109 % of control (dose: 200.0 mg/kg/injection, schedule: Q01DX001 (ip), vehicle: carboxymethylcellulose (CMC)); 102 % of control (dose: 400.0 mg/kg/injection, schedule: Q01DX001 (ip), vehicle: carboxymethylcellulose (CMC)).

As to `CCCCN(C(C)=O)c1ccccc1`, the T/C is 97 % of control (dose: 100.0 mg/kg/injection, schedule: Q01DX001 (ip), vehicle: Klucel (hydroxypropylcellulose) (HPC)); 91 % of control (dose: 200.0 mg/kg/injection, schedule: Q01DX001 (ip), vehicle: Klucel (hydroxypropylcellulose) (HPC)); 94 % of control (dose: 400.0 mg/kg/injection, schedule: Q01DX001 (ip), vehicle: Klucel (hydroxypropylcellulose) (HPC)).

As for `Cc1ccc(S(=O)(=O)N2/C(=C/c3ccccc3)C(=O)c3ccccc3-c3ccccc32)cc1`, the T/C is 96 % of control under setting [4]; 91 % of control (dose: 200.0 mg/kg/injection, schedule: Q01DX001 (ip), vehicle: saline); 90 % of control (dose: 400.0 mg/kg/injection, schedule: Q01DX001 (ip), vehicle: saline).
